Laboratory results as given in US6593342B1, “Pharmaceutical compositions comprising 2-quinolones” (Laboratoire L. Lafon, priority 1998, dated 2003).

Assays:
[1] = test system: T-47D; assay: MTT test, T-47D; assay type: cell-based; conditions: Homo sapiens, T47D, 10^−5 M, 72 hours, control = 100%, mean ± SEM, read-out: average optical density (MTT), percentage relative to control
Experimental: (§1) The influence of the compounds of formulae (I) and (Ia) on non-clonogenic cells was evaluated with the aid of the MTT calorimetric test.
(§2) The principle of the MTT test is based on the mitochondrial reduction, by the metabolically active live cells, of the yellow-colored product MTT (3-(4,5-dimethylthiazol-2-yl)-2,5-diphenyltetrazolium bromide) to a blue-colored product, formazan. The amount of formazan thus obtained is directly proportional to the amount of live cells present in the culture well(s). This amount of formazan is measured by spectrophotometry.
(§3) The cell lines are maintained as a monolayer culture at 37° C. in stoppered culture dishes containing MEM 25 MM HEPES (Minimum Essential Medium) base medium. This medium is suited to the growth of a range of various mammalian diploid or primary cells. This medium is then supplemented with:
(§4) an amount of 5% of FCS (Foetal Calf Serum) decomplemented at 56° C. for 1 hour,
(§5) 0.6 mg/ml of L-glutamine,
(§6) 200 μg/ml of streptomycin,
(§7) The 12 human cancer cell lines which were used were obtained from the American Type Culture Collection (ATCC, Rockville, Md., USA). These 12 cell lines are:
(§8) T-47D (code ATCC: HTB-133) and MCF7 (code ATCC: HTB-22) which are two breast cancers,
(§9) Experimentally: 100 μl of a cell suspension containing 20 000 to 50 000 (depending on the cell type used) cells/ml of culture medium are inoculated in 96-well flat-bottomed multi-well plates and are incubated at 37° C., under an atmosphere comprising 5% CO2 and 70% humidity. After incubation for 24 hours, the culture medium is replaced with 100 μl of fresh medium containing either the various test compounds at concentrations ranging from 10^−5 to 10^−10 M or the solvent used to dissolve the test products (control condition). After incubation for 72 hours under the above conditions, the culture medium is replaced with 100 μl of a yellowish solution of MTT dissolved at a rate of 1 mg/ml in RPMI 1640. The microplates are reincubated for 3 hours at 37° C. and are then centrifuged for 10 minutes at 400×g. The yellowish solution of MTT is removed and the blue formazan crystals formed in the cell are dissolved in 100 μl of DMSO. The microplates are then shaken for 5 minutes. The intensity of the resulting blue coloration, and thus of the conversion of the yellow product MTT into blue formazan by the cells that are still alive at the end of the experiment, is quantified by spectrophotometry using a Dynatech Immunoassay System machine at wavelengths of 570 nm and 630 nm corresponding, respectively, to the maximum absorption wavelengths of formazan and to the background noise. Software incorporated in the spectrophotometer calculates the average optical density values and the standard deviation (SD) and standard error of mean (SEM) values.
(§10) By way of example, the results of the average optical density, expressed as a percentage relative to the average optical density measured under the control condition (set equal to 100%), obtained at a concentration of 10^−5 M on the 12 abovementioned tumor cell lines are given in Table II.

[2] = test system: A549; assay: MTT test, A549; assay type: cell-based; conditions: Homo sapiens, 10^−5 M, 72 hours, control = 100%, mean ± SEM, read-out: average optical density (MTT), percentage relative to control
Experimental: as §1, §2, §3, §4, §5, §6, §7
(§11) A549 (code ATCC: CCL-185) and A-427 (code ATCC: HTB-53) which are two non-small-cell lung cancers,
as §9, §10

[3] = Determination of the maximum tolerated dose (MTD); conditions: mouse, in vivo, ip; B6D2F1/Jico mice; single intraperitoneal administration, 2.5 to 160 mg/kg; survival over 14 days
Experimental: 3.—Determination of the Maximum Tolerated Dose (MTD):
The evaluation of the maximum tolerated dose was carried out on 4- to 6-week-old B6D2F1/Jico mice. The compounds were administered intraperitoneally at increasing doses graduating from 2.5 to 160 mg/kg. The value of the MTD (expressed in mg/kg) is determined from the observation of the survival rate of the animals over a 14-day period after a single administration of the product under consideration. The weight change of the animals is also monitored during this period. When the value of the MTD is greater than 160 mg/kg, the MTD value is likened to 160 mg/kg by default.
The results of the estimation of the maximum tolerated dose (MTD) are collated in the following table: […]

[4] = test system: PC-3; assay: MTT test, PC-3; assay type: cell-based; conditions: Homo sapiens, 10^−5 M, 72 hours, control = 100%, mean ± SEM, read-out: average optical density (MTT), percentage relative to control
Experimental: as §1, §2, §3, §4, §5, §6, §7
PC-3 (code ATCC: CRL-1435) which is a prostate cancer.
as §9, §10

[5] = test system: HCT-15; assay: MTT test, HCT-15; assay type: cell-based; conditions: Homo sapiens, 10^−5 M, 72 hours, control = 100%, mean ± SEM, read-out: average optical density (MTT), percentage relative to control
Experimental: as §1, §2, §3, §4, §5, §6, §7
(§12) HTC-15 (code ATCC: CCL-225) and LoVo (code ATCC: CCL-229) which are two colorectal cancers,
as §9, §10

[6] = test system: J82; assay: MTT test, J82; assay type: cell-based; conditions: Homo sapiens, 10^−5 M, 72 hours, control = 100%, mean ± SEM, read-out: average optical density (MTT), percentage relative to control
Experimental: as §1, §2, §3, §4, §5, §6, §7
(§13) J82 (code ATCC: HTB-1) and T24 (code ATCC: HTB-4) which are two bladder cancers,
as §9, §10

[7] = test system: A-427; assay: MTT test, A-427; assay type: cell-based; conditions: Homo sapiens, 10^−5 M, 72 hours, control = 100%, mean ± SEM, read-out: average optical density (MTT), percentage relative to control
Experimental: as §1, §2, §3, §4, §5, §6, §7, §11, §9, §10

[8] = test system: SW1088; assay: MTT test, SW1088; assay type: cell-based; conditions: Homo sapiens, 10^−5 M, 72 hours, control = 100%, mean ± SEM, read-out: average optical density (MTT), percentage relative to control
Experimental: as §1, §2, §3, §4, §5, §6, §7
SW1088 (code ATCC: HTB-12) which is an astrocytoma,
as §9, §10

[9] = test system: T24; assay: MTT test, T24; assay type: cell-based; conditions: Homo sapiens, T-24, 10^−5 M, 72 hours, control = 100%, mean ± SEM, read-out: average optical density (MTT), percentage relative to control
Experimental: as §1, §2, §3, §4, §5, §6, §7, §13, §9, §10

[10] = test system: LoVo; assay: MTT test, LoVo; assay type: cell-based; conditions: Homo sapiens, 10^−5 M, 72 hours, control = 100%, mean ± SEM, read-out: average optical density (MTT), percentage relative to control
Experimental: as §1, §2, §3, §4, §5, §6, §7, §12, §9, §10

[11] = test system: U-373MG; assay: MTT test, U-373MG; assay type: cell-based; conditions: Homo sapiens, U373 MG, 10^−5 M, 72 hours, control = 100%, mean ± SEM, read-out: average optical density (MTT), percentage relative to control
Experimental: as §1, §2, §3, §4, §5, §6, §7
(§14) U-373MG (code ATCC: HTB-17) and U-87MG (code ATCC: HTB-14) which are two glioblastomas,
as §9, §10

[12] = test system: U-87MG; assay: MTT test, U-87MG; assay type: cell-based; conditions: Homo sapiens, 10^−5 M, 72 hours, control = 100%, mean ± SEM, read-out: average optical density (MTT), percentage relative to control
Experimental: as §1, §2, §3, §4, §5, §6, §7, §14, §9, §10

[13] = test system: MCF7; assay: MTT test, MCF7; assay type: cell-based; conditions: Homo sapiens, 10^−5 M, 72 hours, control = 100%, mean ± SEM, read-out: average optical density (MTT), percentage relative to control
Experimental: as §1, §2, §3, §4, §5, §6, §7, §8, §9, §10

SMILES | viability at 10 µM [1] | viability at 10 µM [2] | MTD at 14 day [3] | viability at 10 µM [4] | viability at 10 µM [5] | viability at 10 µM [6] | viability at 10 µM [7] | viability at 10 µM [8] | viability at 10 µM [9] | viability at 10 µM [10] | viability at 10 µM [11] | viability at 10 µM [12] | viability at 10 µM [13]
COc1ccc(-c2cc3c(OC)cc(OC)cc3n(C)c2=O)cc1 [CRL8244, 5,7-Dimethoxy-3-(4-methoxyphenyl)-1-methyl-1,2-dihydro-2-quinolinone] | 105 ± 3% | 98 ± 0.9% | > 160 mg/kg | 83.2 ± 3.6% | 76.8 ± 3% | 88.5 ± 2.1% | 93.6 ± 2.3% | 81.3 ± 1.1% | 88.7 ± 2.9% | 78.2 ± 1.8% | 69 ± 0.9% | 97 ± 1% | 75.9 ± 3.8%
COc1ccc(-c2cc3c(OC)cc(OC)cc3n(C)c2=S)cc1 [CRL8245, 5,7-Dimethoxy-3-(4-methoxyphenyl)-1-methyl-1,2-dihydro-2-quinolinethione] | 59.6 ± 2.9% | 74.1 ± 2.1% | > 160 mg/kg | 74.4 ± 1.9% | 35.8 ± 1.2% | 31.1 ± 0.6% | 69 ± 1.9% | 75.1 ± 2% | 51.1 ± 1.9% | 65.5 ± 1.1% | 63.7 ± 2.7% | 58.6 ± 1.7% | 46.9 ± 1%
COc1ccc(-c2cc3c(OC)cc(OC)cc3n(CCCN(C)C)c2=O)cc1 [CRL8254, 1-[3-(Dimethylamino)propyl]-5,7-dimethoxy-3-(4-methoxyphenyl)-1,2-dihydro-2-quinolinone] | 55.2 ± 4.1% | 96.9 ± 1.5% | > 160 mg/kg | 97.9 ± 1.2% | 94.4 ± 3.5% | 87.8 ± 1% | 20.2 ± 2.3% | 128 ± 2.2% | 103 ± 2.9% | 91.8 ± 2.7% | 7.6 ± 1.3% | 105 ± 3.6% | 81.9 ± 0.6%
COc1ccc(-c2cc3c(OC)cc(OC)cc3n(CC#N)c2=O)cc1 [CRL8255, [5,7-Dimethoxy-3-(4-methoxyphenyl)-2-oxo-1,2-dihydro-1-quinolinyl]acetonitrile] | 73.7 ± 3.3% | 79.1 ± 2.1% | > 160 mg/kg | 77.7 ± 1.2% | 58.7 ± 3% | 36.2 ± 0.5% | 76.3 ± 1.5% | 67.5 ± 1.5% | 79.5 ± 2.2% | 56.9 ± 1.1% | 68.5 ± 2.7% | 72.5 ± 1.1% | 71.5 ± 1.4%
COc1ccc(-c2cc3c(OC)cc(OC)cc3n(C)/c2=N\Nc2ccccn2)cc1 [CRL8266, 5,7-Dimethoxy-3-(4-methoxyphenyl)-1-methyl-1,2-dihydro-2-quinolinone-2-(2-pyridyl)hydrazone] | 25 ± 4% | 61.6 ± 3.5% | > 160 mg/kg | 67.2 ± 0.9% | 76.1 ± 1.5% | 31.2 ± 0.7% | 45.2 ± 2.2% | 68.4 ± 1.6% | 84.6 ± 3% | 71.3 ± 4.5% | 66.3 ± 1.6% | 64.4 ± 1.2% | 46.3 ± 2.6%
COc1ccc(-c2cc3c(OC)cc(OC)cc3n(C)/c2=N\Nc2ccccc2)cc1 [CRL8270, 5,7-Dimethoxy-3-(4-methoxyphenyl)-1-methyl-1,2-dihydro-2-quinolinone-2-phenylhydrazone] | 22.9 ± 4.3% | 52.2 ± 2.4% | > 160 mg/kg | 49.4 ± 1.1% | 58.8 ± 1.8% | 42.5 ± 0.8% | 30.8 ± 2.1% | 50.7 ± 1.8% | 51.1 ± 3.8% | 80 ± 3.2% | 52.2 ± 3.2% | 75.6 ± 0.9% | 51.5 ± 2.4%
COc1ccc(-c2cc3c(OC)cc(OC)cc3nc2S)cc1 [CRL8271, 5,7-Dimethoxy-3-(4-methoxhphenyl)-1,2-dihydro-2-quinolinethione] | 90.9 ± 1.7% | 94.2 ± 4.7% | > 160 mg/kg | 107 ± 2.7% | 87.2 ± 2.8% | 75.9 ± 1.3% | 84.1 ± 1.9% | 102.2 ± 0.5% | 107 ± 2.3% | 94.2 ± 2.8% | 96.2 ± 1.6% | 78.5 ± 1.7% | 106 ± 2.3%
COc1cc(OC)c2cc(-c3ccc(O)cc3)c(O)nc2c1 [CRL8284, 5,7-Dimethoxy-3-(4-hydroxyphenyl)-1,2-dihydro-2-quinolinone] | 89.9 ± 1.9% | 91.7 ± 1.6% | > 160 mg/kg | 83.8 ± 1% | 77.3 ± 1.8% | 48.8 ± 0.7% | 96 ± 2% | 78.3 ± 1.6% | 68.5 ± 0.9% | 102 ± 1.3% | 87.7 ± 1.4% | 88.1 ± 2.2% | 66.6 ± 2.7%
COc1ccc(-c2cc3c(OC)cc(OC)c4c3n(c2=O)CCC4=O)cc1 [CRL8285, 8,10-Dimethoxy-6-(4-methoxyphenyl)-2,3-dihydro-1H,5H-pyrido[3,2,1-ij]quinoline-1,5-dione] | 89.3 ± 1.7% | 92.5 ± 3.5% | > 160 mg/kg | 93.4 ± 1.8% | 90.6 ± 1.6% | 68.7 ± 2.9% | 78.4 ± 1.6% | 89.8 ± 2.7% | 72.7 ± 1.8% | 103 ± 3.1% | 96.9 ± 1.6% | 85.1 ± 2% | 83.7 ± 2.3%
Oc1ccc(-c2cc3c(O)cc(O)cc3nc2O)cc1 [CRL8311, 5,7-Dihydroxy-3-(4-hydroxyphenyl)-1,2-dihydro-2-quinolinone] | 108 ± 6.6% | 106 ± 2.4% | > 160 mg/kg | 122 ± 3.5% | 101 ± 3.6% | 127 ± 1.9% | 89.7 ± 2% | 80.7 ± 1.7% | 90 ± 1.9% | 77.9 ± 1.7% | 113 ± 2.5% | 91.8 ± 1.3% | 98.8 ± 2.3%
